The values below come from patent US20200407398A1, “Short Proline-Rich Lipopeptide Potentiates Minocycline and Rifampicin Against Multidrug-and Extensively Drug-Resistant Pseudomonas Aeruginosa” (priority 2018, published 2020).

For data set [1], the system named is human liver carcinoma HepG2 cells. The data set is classed as cell-based. As to conditions: read-out: IC50, inhibition of proliferation. As for the experimental part:
The CyQuant Direct cell proliferation assay kit (ThermoFisher, Canada) was used to assess the effect of C12-PRP on cell proliferation according to the manufacturer's protocol. Briefly, human embryonic kidney cells (HEK-293) and HepG2 cells were grown in Dulbecco's Modified Eagle's Medium supplemented with 10% fetal bovine serum. The cells were dispersed into 96-well plates (8000 cells/well in 100 μl ). Wells with media but no cells were used as blanks. After 24 hours, varying concentrations of C12-PRP, colistin and Adriamycin® were added to the wells containing cells but also the blanks. After incubation of the cells with the compounds for 48 hours, the CyQuant Direct detection reagent was added to the wells. Plates were incubated at 37° C. for 1 hour and the fluorescence (Excitation 480nm/Emission 535 nm) was read using a SpectraMax M2e (Molecular Devices, USA). As a positive control, CyQuant Direct detection reagent was added to a plate with untreated cells, incubated for 1 hour followed by fluorescence reading. The number of cells in each well was determined by detaching the cells by trypsin followed by counting on a CoulterZM counter to ensure an approximate equal number of cells per well.

Data set [2] concerns A. baumannii CAN-ICU 63169. In kind it is cell-based. The essentials:
(§1)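 Read-out is visible turbidity, confirmed at 590 nm, with MIC taken as the lowest inhibitory concentration. Bacteria at 5×10^5 CFU/mL were exposed to 2-fold dilutions in Mueller-Hinton broth for 18 hours at 37° C., per CLSI guidelines.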

The next data set has as its system E. coli ATCC 25922. In kind it is cell-based. The essentials:
as §1

Data set [3] concerns E. coli CAN-ICU 61714 (gentamicin-resistant). In kind it is cell-based. The essentials: as §1
In data set [4] the test system is E. coli CAN-ICU 63074 (amikacin-intermediate resistant). In kind it is cell-based. The essentials: as §1
The test system of data set [5] is E. coli CANWARD-2011 97615 (gentamicin-, tobramycin-, ciprofloxacin-resistant) aac(3′)iia. In kind it is cell-based. In outline:
as §1

For the next data set, the system named is E. faecalis ATCC 29212. In kind it is cell-based. In outline: as §1
The next data set deals with E. faecium ATCC 27270. The data set is classed as cell-based. The essentials:
as §1

In another data set the test system is K. pneumoniae ATCC 13883. The data set is classed as cell-based. In outline:
as §1

A further data set deals with P. aeruginosa ATCC 27853. The data set is classed as cell-based. The essentials:
as §1

For data set [6], the system named is P. aeruginosa CAN-ICU 62308 (gentamicin-resistant). In kind it is cell-based. The essentials: as §1
In data set [7] the test system is P. aeruginosa CANWARD-2011 96846 (gentamicin-, tobramycin-resistant). The data set is classed as cell-based. The essentials: as §1
Data set [8] deals with P. aeruginosa wild-type PAO1. In kind it is cell-based. The essentials: as §1
The next data set concerns S. aureus ATCC 29213. In kind it is cell-based. In outline:
as §1

The subject of data set [9] is S. maltophilia CAN-ICU 62584. In kind it is cell-based. In outline:
as §1

Data set [10] has as its system methicillin-resistant S. aureus ATCC 33592. In kind it is cell-based. The essentials: as §1
The test system of data set [11] is methicillin-resistant S. epidermidis CAN-ICU 61589 (ceftazidime-resistant). The data set is classed as cell-based. As to conditions: methicillin-resistant CAN-ICU 61589 (ceftazidime-resistant). In outline:
as §1

Data set [12] concerns methicillin-susceptible Staphylococcus epidermidis CANWARD-2008 81388. The data set is classed as cell-based. The settings on record: methicillin-susceptible CANWARD-2008 81388. The essentials: as §1
A further data set relates to pig erythrocytes. In kind it is cell-based. In outline:
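Washed pig erythrocytes in PBS were mixed with 2-fold serial dilutions of peptide and incubated for 1 h at 37° C. Released hemoglobin in the supernatant was read at 570 nm, with PBS and 0.1% Triton X-100 as controls. MHC was the minimum concentration giving 5% hemolysis.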

The next data set relates to Gram-positive bacteria. The data set is described as follows: Microbroth dilution MIC, range over panel. The data set is classed as cell-based. As to conditions: against Gram-positive bacteria of the panel. As for the experimental part: (§2) The synthesized SPRLPs were evaluated for their antibacterial potency against a panel of Gram-positive and Gram-negative bacteria (Tables 2 & 3). Some of the included pathogens were collected from patients visiting or admitted to participating Canadian hospitals through the CAN-ICU (27) and CANWARD (28) national surveillance studies. Antibacterial activity was assessed using minimum inhibitory concentration (MIC) against various clinical pathogens.
(§3) Microbroth dilution susceptibility test following the Clinical and Laboratory Standards Institute (CLSI) guidelines (32) was performed to assess the in vitro antibacterial activity of SPRLPs. Overnight grown bacterial cultures were diluted in saline to achieve a 0.5 McFarland turbidity, followed by 1:50 dilution in Mueller-Hinton broth (MHB) for inoculation to a final concentration of 5×10^5 colony forming units/mL. The assay was done on a 96-well plate to which the agents of interest were 2-fold serially diluted in MHB and incubated with equal volumes of inoculum at 37° C. for 18 hours. MIC was determined as the lowest concentration to inhibit visible bacterial growth in form of turbidity, which was confirmed using EMax Plus microplate reader (Molecular Devices, USA) at a wavelength of 590 nm. The well containing MHB broth with or without bacterial cells was used as positive or negative control, respectively.

Data set [13] has as its system wild-type and MDR/XDR P. aeruginosa clinical isolates. The settings on record: checkerboard assay; P. aeruginosa. How it is done:
We evaluated the activity of SPRLPs in combination with fifteen clinically-used antibiotics against P. aeruginosa. Antibiotics tested included fluoroquinolones (moxifloxacin, ciprofloxacin and levofloxacin), aminoglycosides (gentamicin, tobramycin and amikacin), cephalosporins (ceftazidime and cefotaxime), carbapenems (meropenem and doripenem), aztreonam, rifampicin, minocycline, colistin and fosfomycin. The SPRLPs were screened initially at a fixed concentration of 8 μg/mL (5 μM) in combination with antibiotics against wild-type P. aeruginosa PAO1. We assessed potentiation by at least a four-fold absolute MIC reduction of the antibiotic, after which synergism was further validated by a conventional checkerboard assay. A fractional inhibitory concentration (FIC) index of ≤0.5, 0.5<x≤4 or >4 was interpreted as synergistic, indifferent or antagonistic interaction, respectively (31). FIC index was obtained by adding the FIC values of the antibiotic and the SPRLP adjuvant. FIC of antibiotics was calculated by dividing the MIC of the antibiotic in the presence of the adjuvant by the MIC of the antibiotic alone. Similarly, the FIC of adjuvant was calculated via dividing the MIC of the adjuvant in the presence of the antibiotic by the MIC of the adjuvant alone.
Isolates used in this study were either obtained from the American Type Culture Collection (ATCC), the Canadian National Intensive Care Unit (CAN-ICU) surveillance study (27) or the Canadian Ward Surveillance (CANWARD) study (28). Clinical isolates belonging to the CAN-ICU and CANWARD studies were recovered from patients suffering a presumed infectious disease entering or admitted in a participating medical center across Canada during the time of study. MDR P. aeruginosa strains in this study refer to those that are resistant to aminoglycosides, fluoroquinolones, cephalosporins, and carbapenems while XDR strains are those that are resistant to aminoglycosides, fluoroquinolones, cephalosporins, carbapenems, aztreonam and penicillin+β-lactamase inhibitor combination (39, 40).
as §3
The assay was performed on a 96-well plate, to which the agents of interest was 2-fold serially diluted in working MHB. Prior to serial dilution, SPRLP was added to the working MHB media so that a fixed final concentration of 8 μg/mL (5 μM) SPRLP per well was achieved. To ensure that the assay was working, the MIC determination test of the studied antibiotic (without SPRLP) was included on the same plate. Similar MIC results between the assay comparator and an independent MIC determination test (on a different plate) ensured validity of the synergy test. Overnight grown bacterial cultures were diluted in saline to 0.5 McFarland turbidity, followed by 1:50 dilution in MHB (without SPRLP) and inoculation into each well to a final concentration of approximately 5×10^5 colony forming units/mL. Wells containing only MHB (without SPRLP) with or without bacterial cells were used as positive or negative control, respectively.

In data set [14] the test system is Gram-negative bacteria E. coli. The data set is described as follows: Microbroth dilution MIC, range over strains. The data set is classed as cell-based. The settings on record: against the E. coli strains of the panel. As for the experimental part: as §2, §3

pIC50: −log10 of the molar value. Peptide text beside a SMILES is read from it. * marks the point of attachment. Palmitoyl = CCCCCCCCCCCCCCCC(=O)*

By MIC is commonly meant the least concentration at which growth counts as inhibited.

For colistin, the pIC50 in data set [1] is 5.82.

For the compound `CCCCCCCCCCCCCCCC(=O)N1CCC[C@H]1C(=O)N[C@@H](CCCNC(=N)N)C(=O)N1CCC[C@H]1C(=O)NCC(=O)N1CCC[C@H]1C(=O)N[C@@H](CCCNC(=N)N)C(=O)N1CCC[C@H]1C(N)=O` [Compound C16-PGP, CH3(CH2)14CO-PRPGPRP-NH2] (Palmitoyl-PRPGPRP-NH2), the MIC is 32 µg/mL in data set [2]; 32 µg/mL in the data set with E. coli ATCC 25922; 32 µg/mL in data set [3]; 32 µg/mL in [4]; 32 µg/mL in data set [5]; 16 µg/mL in the data set with E. faecalis ATCC 29212. For the same compound, the minimal inhibitory concentration (MIC) in the data set on E. faecium ATCC 27270 amounted to 16 µg/mL; in the data set with K. pneumoniae ATCC 13883 it was 64 µg/mL; in the data set with P. aeruginosa ATCC 27853 it was 128 µg/mL; in [6], 128 µg/mL; in data set [7], 128 µg/mL; in data set [8], 64 µg/mL. Also, the minimum inhibitory concentration (MIC) is 32 µg/mL in the data set on S. aureus ATCC 29213; 128 µg/mL in data set [9]; 32 µg/mL in data set [10]; 16 µg/mL in data set [11]; 8 µg/mL in data set [12]. Besides, the “MHC (minimum concentration that resulted in 5% red blood cell hemolysis)” value in the data set with pig erythrocytes stood at 16 µg/mL. Also, the MIC range against Gram-positive bacteria lay in the range of 8 to 32 µg/mL.

For `CCCCCCCCCCCCCCCC(=O)N1CCC[C@H]1C(=O)N[C@@H](CCCNC(=N)N)C(=O)N1CCC[C@H]1C(=O)N[C@@H](CCCNC(=N)N)C(=O)N1CCC[C@H]1C(=O)N[C@@H](CCCNC(=N)N)C(=O)N1CCC[C@H]1C(N)=O` [Compound C16-PRP, CH3(CH2)14CO-PRPRPRP-NH2] (Palmitoyl-PRPRPRP-NH2), the minimum inhibitory concentration (MIC) was found to be 16 µg/mL in data set [2]; 16 µg/mL with E. coli ATCC 25922; 8 µg/mL in data set [3]; 8 µg/mL in data set [4]; 8 µg/mL in data set [5]; 16 µg/mL with E. faecalis ATCC 29212. Also, the minimal inhibitory concentration (MIC) came out at 8 µg/mL with E. faecium ATCC 27270; 64 µg/mL in the data set on K. pneumoniae ATCC 13883; 32 µg/mL in the data set on P. aeruginosa ATCC 27853; 32 µg/mL in data set [6]; 64 µg/mL in data set [7]; 32 µg/mL in data set [8]. In addition, the MIC with S. aureus ATCC 29213 was 8 µg/mL; in [9], 64 µg/mL; in data set [10] it was 16 µg/mL; in [11] it was 8 µg/mL; in [12] it was 4 µg/mL. In the data set on pig erythrocytes, the “MHC (minimum concentration that resulted in 5% red blood cell hemolysis)” value came out at 16 µg/mL. The “interaction with minocycline (in words)” value in [13] is given as “indifferent interaction”. Also, the “interaction with rifampicin (in words)” value in data set [13] is listed as “indifferent interaction”. The MIC range was 4 to 16 µg/mL in the data set with Gram-positive bacteria and 8 to 16 µg/mL in data set [14].

As to `CCCCCCCCCCCCCCCC(=O)N1CCC[C@H]1C(=O)N[C@@H](CCCNC(=N)N)C(=O)N1CCC[C@H]1C(=O)N[C@@H](Cc1c[nH]c2ccccc12)C(=O)N1CCC[C@H]1C(=O)N[C@@H](CCCNC(=N)N)C(=O)N1CCC[C@H]1C(N)=O` [Compound C16-PWP, CH3(CH2)14CO-PRPWPRP-NH2] (Palmitoyl-PRPWPRP-NH2), the minimal inhibitory concentration (MIC) in data set [2] was 64 µg/mL; in the data set with E. coli ATCC 25922, 32 µg/mL; in data set [3], 32 µg/mL; in data set [4], 16 µg/mL; in [5], 64 µg/mL; in the data set with E. faecalis ATCC 29212, 8 µg/mL. Further, the minimum inhibitory concentration (MIC) in the data set on E. faecium ATCC 27270 is 8 µg/mL; in the data set with K. pneumoniae ATCC 13883, 64 µg/mL; in the data set with P. aeruginosa ATCC 27853, 64 µg/mL; in [6], 64 µg/mL; in [7], 64 µg/mL; in data set [8], 32 µg/mL. The MIC in the data set with S. aureus ATCC 29213 worked out at 8 µg/mL; in data set [9], 64 µg/mL; in [10], 8 µg/mL; in data set [11] it was 8 µg/mL; in data set [12], 4 µg/mL. In the data set on pig erythrocytes, the “MHC (minimum concentration that resulted in 5% red blood cell hemolysis)” value came to 16 µg/mL. The compound further registered an MIC range with Gram-positive bacteria of 4 to 8 µg/mL.
